Reference: patent US20230248626A1, “Compositions Comprising (Bio)-Alkanediols” (Symrise AG, priority 0001, published 2023)
Values after ≈ are worked out from the molar mass of the structure shown. Like-named read-outs stand apart in the source and are kept apart here. Blank lines part the entries; values can stand above or below the molecule they belong to.

Key:
[1] = Sensory evaluation on the backside of the hand (spreading, fatty/greasy skin feel, absorption), untrained panellists; settings: for Absorption/remaining residue with alkanediol: scale 1 to 5
Description: For evaluating the sensory behaviour, liquid lipophilic components specified in the following table were blended with 1,2-heptanediol or 2,3-heptanediol or a mixture of 1,2-heptanediol and 2,3-heptanediol or 1,2-octanediol or 2,3-octanediol or a mixture of 1,2-octanediol and 2,3-octanediol (formulation) in a ratio of 85:15 and assessed by untrained panellists in comparison to the liquid lipophilic component without addition of the specified alkanediols (placebo).
The test procedure was carried as follows: For evaluating the sensory behaviour of 1,2-alkanediols and/or 2,3-alkanediols in combination with different liquid lipophilic components, oil components specified in the following table were blended with a 1,2-alkanediol or a 2,3-alkanediol or a mixture including a 1,2-alkanediol and a 2,3-alkanediol in a ratio as specified in Table 53 and assessed by untrained panellists in comparison to the liquid lipophilic component without addition of the 1,2-alkanediol or 2,3-alkanediol or the mixture including a 1,2-alkanediol and 2,3-alkanediol (placebo).
Test Procedure: • Hands were pre-washed with liquid soap by following a defined procedure; 30 μl of corresponding sample was applied on the backside of each hand (randomized); • After 30 s the spreading behaviour of the respective formulation on skin was evaluated versus the respective oil component without 1,2-heptanediol on a scale from 1 to 5 (1=low spreading; 5=high spreading); • The samples were distributed with the fingertips of middle and forefinger with 2×5 cycles; • After 2 minutes, the fatty/greasy skin feel was evaluated on a scale from 1 to 5 (1=low fatty/greasy skin feel; 5=high fatty/greasy skin feel); • Furthermore the applicants were asked to assess the absorption, i.e. the impression of amount of remaining residue on the skin on a scale from 1 to 5 (1=low absorption; 5=high absorption).

Aspergillus brasiliensis = experiment: MIC and Kull synergy index of 1,2-/2,3-alkanediol mixtures; type: cell-based
Corynebacterium jeikeium = experiment: MIC test (growth inhibition, 96 well plates, OD); type: cell-based; settings: read-out: Minimum Inhibitory Concentration (MIC)
Description: (§1) The MIC test is a test on growth inhibition. Estimation of Minimum Inhibitory Concentration (MIC) is executed in 96 well plates. Through the comparison of bacterial growth with positive and negative controls via optical density (OD), different concentrations of given test substances are evaluated.
(§2) Bacteria are cultivated under adjusted conditions based on information of the German Collection of Microorganisms and Cell Cultures (DSMZ) and stored in 50% Glycerol prior to use. Afterwards, the following method was applied: Adding growth medium (according to microorganism) to each well of the microplate. Adding the test-substances in different concentrations, positive controls (water controls only with medium) and negative controls (benchmarks according to organism). Adding the microorganism in a concentration of 10^6 CFU/ml (CFU=colony forming units). Incubation of the microplates at appropriate conditions.
(§3) According to resulting growth, substance concentrations are labelled either as inhibiting or not and MIC is defined as the lowest concentration where a complete growth inhibition is visible. Experiments at concentration limits (highest concentration labelled as growth and lowest concentration labelled as inhibiting) are performed at least twice.

Staphylococcus hominis = experiment: MIC test (growth inhibition, 96 well plates, OD); type: cell-based; settings: read-out: Minimum Inhibitory Concentration (MIC)
Description: as §1, §2, §3

Escherichia coli = experiment: MIC test (growth inhibition, 96 well plates, OD); type: cell-based; settings: read-out: Minimum Inhibitory Concentration (MIC)
Description: as §1, §2, §3

Staphylococcus aureus = experiment: MIC test (growth inhibition, 96 well plates, OD); type: cell-based; settings: read-out: Minimum Inhibitory Concentration (MIC)
Description: as §1, §2, §3

Candida albicans = experiment: MIC test (growth inhibition, 96 well plates, OD); type: cell-based; settings: read-out: Minimum Inhibitory Concentration (MIC)
Description: as §1, §2, §3

Escherichia coli (EC) = experiment: Preservation efficacy test (PET), European Pharmacopoeia 5.1.3; type: cell-based
Description: (§4) The preservation efficacy test (PET) was performed in accordance with European Pharmacopoeia § 5.1.3: The test is a reference European Pharmacopoeia method, that is to be used to evaluate the preservation system of a cosmetic or pharmaceutical preparation. The test consists of challenging the preparation under test, with prescribed inoculums of suitable microorganisms. The preservation porperties of the preparation are adequate if, in the conditions of the test, there is a significant fall or no increase, as appropriate, in the number of microorganisms in the inoculated preparations after the time prescribed.
(§5) The test microorganisms which were used, are the following:
(§6) Pseudomonas aeruginosa (PA) (bacterium); Staphylococcus aureus (SA) (bacterium); Escherichia coli (EC) (bacterium); Candida albicans (CA) (yeast); and Aspergillus brasiliensis (AB) (fungus).

[2] = test system: Aspergillus brasiliensis (AB); experiment: as above; type: cell-based
Description: as §4, §5, §6

[3] = test system: Pseudomonas aeruginosa (PA); experiment: as above; type: cell-based
Description: as §4, §5, §6

Candida albicans (CA) = experiment: as above; type: cell-based
Description: as §4, §5, §6

[4] = test system: Staphylococcus aureus (SA); experiment: as above; type: cell-based
Description: as §4, §5, §6

Propionibacterium acnes = experiment: MIC test (growth inhibition, 96 well plates, OD); type: cell-based; settings: Cutibacterium acnes; read-out: Minimum Inhibitory Concentration (MIC)
Description: as §1, §2, §3

human sebaceous glands = experiment: Sebum production of micro-dissected, cultured human sebaceous glands (lipids/proteins after six days); type: cell-based; parameters: sebum reduction: concentration or dose not given beside the values; settings: compared to untreated control; six days; single donor (FIG. 4)
Description: Additional tests were performed with human sebaceous glands in order to verify the modulatory activity of different 1,2-alkanediols and 2,3-alkanediols on sebum secretion. Several microbial species on the skin are lipid dependent and feed on the human sebum (e.g. Corynebacterium, Propionibacterium). Accordingly, sebum reduction can indirectly support the reduction of microorganisms on the skin and in this way also indirectly support e.g. dandruff or acne reduction.
For these experiments sebaceous glands had been micro-dissected and cultured with medium. The medium without any supplement served as untreated control. Medium with 5 μM Capsaicin served as positive control. Additionally, culture medium was supplemented with different concentrations of alkanediols. After six days the sebaceous glands were collected and lipids and proteins quantified. The total lipid amount being representative of sebum production was obtained by normalizing the quantified lipids upon the quantified proteins (i.e. mg of lipids/mg of proteins).

[5] = blend with Caprylic Capric Triglyceride (CCT) (neutral oil), rows r187-r195, vs without
[6] = blend with Caprylic Capric Triglyceride (CCT) (neutral oil), rows r187-r195
[7] = single 1,2-alkanediol, read-out: MIC Component A

- Absorption/remaining residue Delta [1, 5]: 1.8
- Absorption/remaining residue with alkanediol [1, 6]: 2.8
- MIC (Aspergillus brasiliensis; [7]): 7500 µg/mL
Structure (SMILES): CCCCC(O)CO (stereo not drawn) [1,2-hexanediol]

- Absorption/remaining residue Delta ([1]; blend with Argan Oil vs without): 1.2
- Absorption/remaining residue with alkanediol ([1]; blend with Argan Oil): 2.6
- Absorption/remaining residue Delta ([1]; blend with Avocado Oil vs without): 1.2
- Absorption/remaining residue with alkanediol ([1]; blend with Avocado Oil): 2.6
- Absorption/remaining residue Delta ([1]; blend with Cacao butter vs without): 0.6
- Absorption/remaining residue with alkanediol ([1]; blend with Cacao butter): 3
- Absorption/remaining residue Delta ([1]; blend with Castor Oil vs without): 1
- Absorption/remaining residue with alkanediol ([1]; blend with Castor Oil): 3.4
- Absorption/remaining residue Delta ([1]; blend with Coconut Oil vs without): 0.8
- Absorption/remaining residue with alkanediol ([1]; blend with Coconut Oil): 3
- Absorption/remaining residue Delta ([1]; blend with Grapeseed Oil vs without): 1
- Absorption/remaining residue with alkanediol ([1]; blend with Grapeseed Oil): 1.6
- Absorption/remaining residue Delta ([1]; blend with Helianthus Annuus (Sunflower) Seed Oil vs without): 1.8
- Absorption/remaining residue with alkanediol ([1]; blend with Helianthus Annuus (Sunflower) Seed Oil): 2
- Absorption/remaining residue Delta ([1]; blend with Octocrylene (Neo Heliopan 303), vs without): 0.5
- Absorption/remaining residue with alkanediol ([1]; blend with Octocrylene (Neo Heliopan 303)): 3.5
- Absorption/remaining residue Delta ([1]; blend with Olive Oil vs without): 1.4
- Absorption/remaining residue with alkanediol ([1]; blend with Olive Oil): 2.6
- MIC (Corynebacterium jeikeium): 5000 µg/mL (≈ 34200 µM)
- MIC (Staphylococcus hominis): 5000 µg/mL (≈ 34200 µM)
- MIC (Escherichia coli): 5000 µg/mL (≈ 34200 µM)
- MIC (Staphylococcus aureus): 2500 µg/mL (≈ 17100 µM)
- MIC (Candida albicans): 2500 µg/mL (≈ 17100 µM)
- MIC (Aspergillus brasiliensis; [7]): 2500 µg/mL
Structure (SMILES): CCCCCCC(O)CO (stereo not drawn) [1,2-octanediol]
- number of microorganisms after 2 days (Escherichia coli (EC); 0.1% in wet wipes solution): 1,300,000
- number of microorganisms after 7 days (Escherichia coli (EC); 0.1% in wet wipes solution): 3,500,000
- number of microorganisms after 14 days (Escherichia coli (EC); 0.1% in wet wipes solution): 2,100,000
- number of microorganisms after 28 days (Escherichia coli (EC); 0.1% in wet wipes solution): 2,300
- number of microorganisms after 2 days (Escherichia coli (EC); 0.2% in o/w emulsion): 1
- number of microorganisms after 7 days (Escherichia coli (EC); 0.2% in o/w emulsion): 1
- number of microorganisms after 14 days (Escherichia coli (EC); 0.2% in o/w emulsion): 1
- number of microorganisms after 28 days (Escherichia coli (EC); 0.2% in o/w emulsion): 1
- number of microorganisms after 2 days ([2]; 0.1% in wet wipes solution): 22,000,000
- number of microorganisms after 7 days ([2]; 0.1% in wet wipes solution): 8,500,000
- number of microorganisms after 14 days ([2]; 0.1% in wet wipes solution): 11,000,000
- number of microorganisms after 28 days ([2]; 0.1% in wet wipes solution): 12,000,000
- number of microorganisms after 2 days ([2]; 0.2% in o/w emulsion): 2,400,000
- number of microorganisms after 7 days ([2]; 0.2% in o/w emulsion): 2,700,000
- number of microorganisms after 14 days ([2]; 0.2% in o/w emulsion): 2,100,000
- number of microorganisms after 28 days ([2]; 0.2% in o/w emulsion): 1,200,000
- number of microorganisms after 2 days ([3]; 0.1% in wet wipes solution): 1,300,000
- number of microorganisms after 7 days ([3]; 0.1% in wet wipes solution): 2,500,000
- number of microorganisms after 14 days ([3]; 0.1% in wet wipes solution): 750,000
- number of microorganisms after 28 days ([3]; 0.1% in wet wipes solution): 350,000
- number of microorganisms after 2 days ([3]; 0.2% in o/w emulsion): 1
- number of microorganisms after 7 days ([3]; 0.2% in o/w emulsion): 1
- number of microorganisms after 14 days ([3]; 0.2% in o/w emulsion): 1
- number of microorganisms after 28 days ([3]; 0.2% in o/w emulsion): 1
- number of microorganisms after 2 days (Candida albicans (CA); 0.1% in wet wipes solution): 4,700,000
- number of microorganisms after 7 days (Candida albicans (CA); 0.1% in wet wipes solution): 3,900,000
- number of microorganisms after 14 days (Candida albicans (CA); 0.1% in wet wipes solution): 5,800,000
- number of microorganisms after 28 days (Candida albicans (CA); 0.1% in wet wipes solution): 9,300,000
- number of microorganisms after 2 days (Candida albicans (CA); 0.2% in o/w emulsion): 950,000
- number of microorganisms after 7 days (Candida albicans (CA); 0.2% in o/w emulsion): 15,000
- number of microorganisms after 14 days (Candida albicans (CA); 0.2% in o/w emulsion): 36
- number of microorganisms after 28 days (Candida albicans (CA); 0.2% in o/w emulsion): 1
- number of microorganisms after 2 days ([4]; 0.1% in wet wipes solution): 425
- number of microorganisms after 7 days ([4]; 0.1% in wet wipes solution): 50
- number of microorganisms after 14 days ([4]; 0.1% in wet wipes solution): 50
- number of microorganisms after 28 days ([4]; 0.1% in wet wipes solution): 50
- number of microorganisms after 2 days ([4]; 0.2% in o/w emulsion): 1
- number of microorganisms after 7 days ([4]; 0.2% in o/w emulsion): 1
- number of microorganisms after 14 days ([4]; 0.2% in o/w emulsion): 1
- number of microorganisms after 28 days ([4]; 0.2% in o/w emulsion): 1

- MIC (Propionibacterium acnes): 500 µg/mL (≈ 2870 µM)
- MIC (Corynebacterium jeikeium): 2500 µg/mL (≈ 14300 µM)
- MIC (Staphylococcus hominis): 500 µg/mL (≈ 2870 µM)
- MIC (Escherichia coli): 250 µg/mL (≈ 1430 µM)
- MIC (Staphylococcus aureus): 250 µg/mL (≈ 1430 µM)
- MIC (Candida albicans): 250 µg/mL (≈ 1430 µM)
Structure (SMILES): CCCCCCCCC(O)CO (stereo not drawn) [1,2-Decanediol, 1,2-decanediol, reference compound]

Structure (SMILES): CCCCCCCCCC(O)CO (stereo not drawn) [1,2-undecanediol]
- sebum reduction (human sebaceous glands): 44%

- Absorption/remaining residue Delta [1, 5]: 1.8
- Absorption/remaining residue with alkanediol [1, 6]: 2.8
- MIC (Aspergillus brasiliensis; single 2,3-alkanediol, read-out: MIC Component B): 20000 µg/mL
Structure (SMILES): CCCC(O)C(C)O (stereo not drawn) [2,3-hexandiol, 2,3-hexanediol]

- MIC (Propionibacterium acnes): 250 µg/mL (≈ 1330 µM)
- MIC (Corynebacterium jeikeium): 250 µg/mL (≈ 1330 µM)
- MIC (Staphylococcus hominis): 250 µg/mL (≈ 1330 µM)
- MIC (Escherichia coli): 500 µg/mL (≈ 2660 µM)
- MIC (Staphylococcus aureus): 250 µg/mL (≈ 1330 µM)
- MIC (Candida albicans): 250 µg/mL (≈ 1330 µM)
Structure (SMILES): CCCCCCCCC(O)C(C)O (stereo not drawn) [2,3-Undecanediol, 2,3-undecanediol]
- sebum reduction (human sebaceous glands): more than 50%
